Test results as given in PMC2707266 (2009).
Read-outs that look alike come from different tables or passages of the source.

Experiments:
Format in all cases: biochemical
KPC-2 [1] = biological target: T1, KPC-2 (Klebsiella pneumoniae, UniProt Q9F663); test: nitrocefin hydrolysis at […] nm, […] min pre-incubation
KPC-2 [2] = biological target: T1, KPC-2; test: steady-state kinetics of hydrolysis at […] nm
KPC-2 [3] = biological target: T1, KPC-2; test: nitrocefin hydrolysis at […] nm, […] min pre-incubation; remark: listed apart in the source

T1 sequence (Q9F663 25-293, looked up): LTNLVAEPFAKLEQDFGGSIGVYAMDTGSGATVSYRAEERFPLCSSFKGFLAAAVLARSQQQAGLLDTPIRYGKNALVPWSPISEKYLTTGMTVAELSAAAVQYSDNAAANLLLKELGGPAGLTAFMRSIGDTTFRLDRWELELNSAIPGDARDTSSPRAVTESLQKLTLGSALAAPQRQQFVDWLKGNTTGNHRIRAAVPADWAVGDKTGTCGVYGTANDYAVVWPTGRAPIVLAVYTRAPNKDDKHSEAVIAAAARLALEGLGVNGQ

`O=C(O)[C@H]1/C(=C/CO)O[C@@H]2CC(=O)N21` [clavulanate] was tested. Which IC50 (KPC-2 [1]) did it give?
Its IC50 is 6.5 µM.

Which Km (KPC-2 [2]) does the source give for `O=C(Cc1cccs1)N[C@@H]1C(=O)N2C(C(=O)O)=C(/C=C/c3ccc([N+](=O)[O-])cc3[N+](=O)[O-])CS[C@H]12` [nitrocefin] here?
The Km was 52 µM.

With `C[C@]1(Cn2ccnn2)[C@H](C(=O)O)N2C(=O)C[C@H]2S1(=O)=O` [tazobactam] as the compound, how does the IC50 (KPC-2 [3]) read?
Its IC50 is 9.2 µM.
